In ChEMBL document CHEMBL5608246, “Membrane-Targeting Amphiphilic Honokiol Derivatives Containing an Oxazole Moiety as Potential Antibacterials against Methicillin-Resistant Staphylococcus aureus” (J Med Chem, 2024):
Activity calls are given as the source filed them. The rule behind the calls is not given here.

Tests used:
Staphylococcus aureus [1] = assay: Upregulation of mspA gene expression in methicillin resistant Staphylococcus aureus N315 at 4 ug/ml incubated for 4 hrs by RNA-sequencing analysis; type: functional; conditions: dose 4.0 µg/ml
Staphylococcus aureus [2] = assay: Inhibition of lysine synthesis in methicillin resistant Staphylococcus aureus N315 at 4 ug/ml incubated for 4 hrs by RNA-sequencing analysis; type: functional, organism-based; conditions: dose 4.0 µg/ml
Staphylococcus aureus [3] = assay: Disruption of redox process in methicillin resistant Staphylococcus aureus N315 at 4 ug/ml incubated for 4 hrs by RNA-sequencing analysis; type: functional, organism-based; conditions: dose 4.0 µg/ml
Staphylococcus aureus [4] = assay: Antibacterial activity against methicillin resistant Staphylococcus aureus M12 incubated for 16 to 18 hrs by broth dilution method; type: functional; conditions: time 16-18 hrs
Staphylococcus aureus [5] = assay: Antibacterial activity against methicillin resistant Staphylococcus aureus 20 incubated for 16 to 18 hrs in presence of 32 ug/ml phosphatidylglycerol by checkerboard broth dilution method; type: functional; conditions: time 16-18 hrs
Staphylococcus aureus [6] = assay: Inhibition of transcription in methicillin resistant Staphylococcus aureus N315 at 4 ug/ml incubated for 4 hrs by RNA-sequencing analysis; type: functional, organism-based; conditions: dose 4.0 µg/ml
[7] = Toxicity in Kunming mouse assessed as change in white blood cell counts at 20 mg/kg, sc measured after 24 hrs; type: organism-based; conditions: in vivo
Staphylococcus aureus [8] = assay: Antibacterial activity against methicillin resistant Staphylococcus aureus M11 incubated for 16 to 18 hrs by broth dilution method; type: functional; conditions: time 16-18 hrs
Staphylococcus aureus [9] = assay: Effect on ABC transporter protein gene expression in methicillin resistant Staphylococcus aureus N315 at 4 ug/ml incubated for 4 hrs by RNA-sequencing analysis; type: functional; conditions: dose 4.0 µg/ml
Staphylococcus aureus [10] = assay: Inhibition of DNA replication in methicillin resistant Staphylococcus aureus N315 at 4 ug/ml incubated for 4 hrs by RNA-sequencing analysis; type: functional, organism-based; conditions: dose 4.0 µg/ml
[11] = Toxicity in Kunming mouse skin abscess model infected with methicillin resistant Staphylococcus aureus assessed as kidney damage at 5 to 10 mg/kg, sc measured after 2 hrs by H and E staining based assay; type: organism-based; conditions: in vivo, dose 5-10 mg/kg
Staphylococcus aureus [12] = assay: Antibacterial activity against methicillin resistant Staphylococcus aureus 20 infected in Kunming mouse skin abscess model assessed as reduction in IL-6 level at 5 to 10 mg/kg, sc measured after 2 hrs by ELISA; type: functional, organism-based; conditions: dose 5-10 mg/kg
Cell membrane [13] = assay: Induction of membrane depolarization in methicillin resistant Staphylococcus aureus 20 assessed as fold increase in fluorescence intensity at 32 times MIC measured at 2 mins interval over 20 mins by DiSC3(5) staining based assay relative to control; type: cell membranes
Staphylococcus aureus [14] = assay: Upregulation of cwrA gene expression in methicillin resistant Staphylococcus aureus N315 at 4 ug/ml incubated for 4 hrs by RNA-sequencing analysis; type: functional; conditions: dose 4.0 µg/ml
[15] = Selectivity index, ratio of HC50 for sheep RBC to MIC for Staphylococcus aureus ATCC 29213; type: toxicity; conditions: sheep red blood cells, read-out: Selectivity Index
Staphylococcus aureus [16] = assay: Antibacterial activity against methicillin resistant Staphylococcus aureus 20 infected in Kunming mouse skin abscess model assessed as appearance of smooth back skin at 10 mg/kg, sc measured after 2 hrs; type: functional, organism-based
[17] = Hemolytic activity in sheep RBC incubated for 1 hr; type: toxicity, cell-based, Ovis aries, Erythrocyte; conditions: sheep red blood cells (erythrocytes)
Staphylococcus aureus [18] = assay: Inhibition of arginine synthesis in methicillin resistant Staphylococcus aureus N315 at 4 ug/ml incubated for 4 hrs by RNA-sequencing analysis; type: functional, organism-based; conditions: dose 4.0 µg/ml
Staphylococcus aureus [19] = assay: Antibacterial activity against methicillin resistant Staphylococcus aureus 20 incubated for 16 to 18 hrs in presence of 2 to 64 ug/ml cardiolipin by checkerboard broth dilution method; type: functional, organism-based; conditions: time 16-18 hrs
[20] = Toxicity in Kunming mouse assessed as change in albumin level at 20 mg/kg, sc measured after 24 hrs; type: organism-based; conditions: in vivo
Staphylococcus aureus [21] = assay: Antibacterial activity against methicillin resistant Staphylococcus aureus M23 incubated for 16 to 18 hrs by broth dilution method; type: functional; conditions: time 16-18 hrs
[22] = Toxicity in Kunming mouse assessed as heart abnormalities at 10 mg/kg, sc measured after 24 hrs; type: organism-based; conditions: in vivo
[23] = Toxicity in Kunming mouse assessed as change in hemoglobin level at 20 mg/kg, sc measured after 24 hrs; type: organism-based; conditions: in vivo
Staphylococcus aureus [24] = assay: Antibacterial activity against methicillin resistant Staphylococcus aureus 20 infected in Kunming mouse skin abscess model assessed as reduction in inflammatory cell infiltration in dermal layer at 10 mg/kg, sc measured after 2 hrs; type: functional, organism-based
Cell membrane [25] = assay: Induction of membrane disruption in methicillin resistant Staphylococcus aureus 20 assessed as intracellular protein leakage incubated for 4 hrs by microspectrophotometer analysis; type: cell membranes; conditions: dose 2-16 µg/ml
L02 = assay: Cytotoxicity against human L02 cells assessed as reduction in cell viability incubated for 24 hrs by CCK8 assay; type: toxicity, cell-based; conditions: l02, 24 h
Staphylococcus aureus [26] = assay: Antibacterial activity against methicillin resistant Staphylococcus aureus 20 infected in Kunming mouse skin abscess model assessed as reduction in abscess size at 5 mg/kg, sc measured after 2 hrs; type: functional, organism-based
[27] = Toxicity in Kunming mouse assessed as change in urea level at 20 mg/kg, sc measured after 24 hrs; type: organism-based; conditions: in vivo
[28] = Toxicity in Kunming mouse assessed as change in creatinine level at 20 mg/kg, sc measured after 24 hrs; type: organism-based; conditions: in vivo
Staphylococcus aureus [29] = assay: Antibacterial activity against Staphylococcus aureus ATCC 29213 after 20 passages incubated for 16 to 18 hrs; type: functional; conditions: time 16-18 hrs
Staphylococcus aureus [30] = assay: Antibacterial activity against methicillin resistant Staphylococcus aureus 20 infected in Kunming mouse skin abscess model assessed as reduction in bacterial load at 5 mg/kg, sc measured after 2 hrs; type: functional; design: scale not given: the % may be the effect or the level left
Staphylococcus aureus [31] = assay: Antibacterial activity against methicillin resistant Staphylococcus aureus M21 incubated for 16 to 18 hrs by broth dilution method; type: functional; conditions: time 16-18 hrs
Cell membrane [32] = assay: Induction of membrane permeability in methicillin resistant Staphylococcus aureus 20 assessed as broken cell membrane by measuring increased fluorescence intensity at 32 ug/ml measured at 2 mins interval over 20 mins by SYTOX green staining based assay; type: cell membranes; conditions: dose 32.0 µg/ml
[33] = Toxicity in Kunming mouse assessed as skin swelling at 40 to 80 mg/kg, sc measured after 24 hrs; type: organism-based; conditions: in vivo, dose 40-80 mg/kg
Staphylococcus aureus [34] = assay: Antibacterial activity against methicillin resistant Staphylococcus aureus 20 incubated for 16 to 18 hrs in presence of 2 to 64 ug/ml peptidoglycan by checkerboard broth dilution method; type: functional, organism-based; conditions: time 16-18 hrs
Staphylococcus aureus [35] = assay: Antibacterial activity against methicillin resistant Staphylococcus aureus 20 infected in Kunming mouse skin abscess model assessed as reduction in severity of skin abscess at 5 mg/kg, sc measured after 2 hrs; type: functional, organism-based
[36] = Toxicity in Kunming mouse assessed as effect on survival at 5 to 80 mg/kg, sc measured after 24 hrs; type: organism-based; conditions: in vivo, dose 5-80 mg/kg
[37] = Toxicity in Kunming mouse skin abscess model infected with methicillin resistant Staphylococcus aureus assessed as lung damage at 5 to 10 mg/kg, sc measured after 2 hrs by H and E staining based assay; type: organism-based; conditions: in vivo, dose 5-10 mg/kg
[38] = Toxicity in Kunming mouse assessed as lung abnormalities at 10 mg/kg, sc measured after 24 hrs; type: organism-based; conditions: in vivo
[39] = Toxicity in Kunming mouse skin abscess model infected with methicillin resistant Staphylococcus aureus assessed as liver damage at 5 to 10 mg/kg, sc measured after 2 hrs by H and E staining based assay; type: organism-based; conditions: in vivo, dose 5-10 mg/kg
Cell membrane [40] = assay: Induction of membrane disruption in methicillin resistant Staphylococcus aureus 20 assessed as viable cells with intact membrane at 32 ug/ml incubated for 2 hrs by SYTO9/PI staining based flow cytometry analysis (reference value: 98.7%); type: cell membranes; conditions: dose 32.0 µg/ml

For C=CCc1cc(-c2ccc(OCCC[N+](C)(C)CC(=O)NCCCC)c(CC=C)c2)c2oc(-c3c(Cl)cccc3Cl)nc2c1.[Br-], the Activity (Staphylococcus aureus [1]) was “Active”, the inhibition (Staphylococcus aureus [2]) was “Active” and the Activity (Staphylococcus aureus [3]) was “Active”. The MIC (Staphylococcus aureus [4]) was 4 µg/mL, the MIC (Staphylococcus aureus [5]) was 32 µg/mL and the inhibition (Staphylococcus aureus [6]) was “Active”. The Activity [7] was “Non-Toxic”, the MIC (Staphylococcus aureus [8]) was 4 µg/mL and the Activity (Staphylococcus aureus [9]) was “Active”. For the same compound, the inhibition (Staphylococcus aureus [10]) was “Active”, the Activity [11] was “Non-Toxic” and the Activity (Staphylococcus aureus [12]) was “Active”. For the same compound, the fold change (FC) (Cell membrane [13]) was 8, the Activity (Staphylococcus aureus [14]) was “Active” and the selectivity ratio [15] was 54.5. The Activity (Staphylococcus aureus [16]) was “Active”, the HC50 at 1 h [17] was 218 µg/mL and the inhibition (Staphylococcus aureus [18]) was “Active”. The Activity (Staphylococcus aureus [19]) was “inactive”, the Activity [20] was “Non-Toxic” and the MIC (Staphylococcus aureus [21]) was 4 µg/mL. For the same compound, the Activity [22] was “Non-Toxic”, the Activity [23] was “Non-Toxic” and the Activity (Staphylococcus aureus [24]) was “Active”. For the same compound, the Activity (Cell membrane [25]) was “Dose-Dependent Effect”, the Activity (L02) was “Dose-Dependent Effect” and the Activity (Staphylococcus aureus [26]) was “Active”. For the same compound, the Activity [27] was “Non-Toxic”, the Activity [28] was “Non-Toxic” and the MIC (Staphylococcus aureus [29]) was 2 µg/mL. The Activity (Staphylococcus aureus [30]) was 96.54%, the MIC (Staphylococcus aureus [31]) was 4 µg/mL and the Activity (Cell membrane [32]) was “Active”. The Activity [33] was “Toxic”, the Activity (Staphylococcus aureus [34]) was “Active” and the Activity (Staphylococcus aureus [35]) was “Active”. The Activity [36] was “Non-Toxic”, the Activity [37] was “Non-Toxic” and the Activity [38] was “Non-Toxic”. The Activity [39] was “Non-Toxic” and the Activity (Cell membrane [40]) was 0.33%.
